Assay results as given in patent US4956294A, “Culture of Streptoverticillium synroense for producing an antibacterial” (Merck & Co., Inc., priority 1989, dated 1990).
In brackets after ≈: the same amount, converted by molar mass.

Tests used:
[1] = tested on: Prot. mirabilis Gm^r 2830; assay: Agar dilution, trypticase soy agar; conditions: Proteus mirabilis, 20 h
Ent. cloacae P99+ 2646 = assay: Agar dilution, trypticase soy agar; conditions: Enterobacter cloacae, 20 h
C. perfringens 2237 = assay: microbe, parasite or virus in culture; type: cell-based; conditions: Clostridium perfringens, 2237, 48 h
Ent. cloacae P99- 2647 = assay: Agar dilution, antagonist-free medium; conditions: Enterobacter cloacae, P992647, 20 h
C. perfringens 3512 = assay: microbe, parasite or virus in culture; type: cell-based; conditions: Clostridium perfringens, 3512, 48 h
[2] = tested on: Erwinia atroseptica 1159 (4446); assay: Inhibition zone, agar plate; type: cell-based; conditions: Pectobacterium atrosepticum, 15λ, read-out: Inhibition Zone Diameter
[3] = tested on: Streptococcus agalactiae 2875; assay: Inhibition zone, agar plate; type: cell-based; conditions: 15λ, read-out: Inhibition Zone Diameter

## C[C@H](CNC(=O)[C@H]1N=C(c2cccc(O)c2O)O[C@@H]1C)C(=O)N[C@@H]1CCCN(O)C1=O [L-654,040, 2-(2,3-dihydroxyphenyl)-4,5-dihydro-N-[3-[(1-hydroxy-2-oxo-3(R)-piperidinyl)-amino]-2(R)-methyl-3-oxopropyl]-5R-methyl-4S-oxazolecarboxamide]
[1]
  MIC: > 128 µg/mL
Ent. cloacae P99+ 2646
  MIC: > 128 µg/mL
C. perfringens 2237
  MIC: 128 µg/mL (≈ 295 µM)
Ent. cloacae P99- 2647
  MIC: > 256 µg/mL
C. perfringens 3512
  MIC: 64 µg/mL (≈ 147 µM)
[2]; 0.5 mg/ml in distilled H2O
  zone of inhibition at 500 µg/mL: 0 mm
[2]; 2 mg/ml in distilled H2O
  zone of inhibition at 2000 µg/mL: 0 mm
[3]; 0.5 mg/ml in distilled H2O
  zone of inhibition at 500 µg/mL: 12 mm
[3]; 2 mg/ml in distilled H2O
  zone of inhibition at 2000 µg/mL: 13 mm
